Measurements: patent publication US20230270805A1, “A COMPOSITION COMPRISING AN EXTRACT OF ALDER TREE OR THE ISOLATED COMPOUNDS THEREFROM FOR TREATING AND PREVENTING SKELETON MUSCLE-RELATED DISORDER AND THE USE THEREOF” (Sookmyung Women's University Indusutry-Academic Cooperation …, priority 2020, published 2023)

Assays:
MHC = experiment: Western blot of MHC in dexamethasone-treated myotube cells (in vitro model of muscle loss); format: cell-based, mouse; details: myotube cells treated with dexamethasone alone; untreated cells = 1
Description: (§1) In order to confirm the inhibitory effect of the inventive extract obtained in Example, dexamethasone was treated to myotube cell to establish in vitro model of muscle loss and following experiment was performed according to the procedure disclosed in the previous literature (Int. J. Mol. Med. 2015, 36:29).
(§2) For Western blot analysis, about 3×10^4 mouse myoblast cell cells (C2C12; CRL-1772 ATCC) were incubated in 60 mm plates for 24 hours, and various concentrations of each inventive extract (0, 1, 10, 100 ng/mL) was added to the differentiation medium for 3 days to differentiate. The protein extract was obtained from the differentiated cells using by lysis buffer [25 mM Tris-HCl (pH 7.5), 100 mM NaCl, 1% NP-40, 1% sodium deoxycholate, 0.1% sodium dodecyl sulfate (SDS), and protease inhibitor cocktail, Calbiochem, Darmstadt, Germany). The protein extract (25 μg) was performed to SDS-polyacrylamide gel electorphoresis (PAGE) and transferred to polyvinylidene fluoride (PVDF) membranes.
Primary mouse anti-MHC (sc-376157, Santa Cruz) or primary mouse anti-MAFbx (sc-166806, Santa Cruz) was conjugated to the blots at 4° C., for 12 hrs and then conjugated with anti-mouse secondary antibody conjugated to Horseradish peroxidase (goat anti-mouse IgG-HRP, sc-2005, Santa Cruz) to analyze the amount of MHC and MAFbx protein by chemiluminescence method. […]

MAFbx = experiment: Western blot of MAFbx in dexamethasone-treated myotube cells (in vitro model of muscle loss); format: cell-based, mouse; details: myotube cells treated with dexamethasone alone; untreated cells = 1
Description: as §1
In particular, following experiment was performed according to the procedure disclosed in the previous literature to find out whether inventive extract takes an effect on MAFbx expression during muscle protein degradation by dexamethasone treatment since the activity of MAFbx, a muscle proteolytic enzyme, is known to induce muscle protein loss (Biomed. Pharmacother. 2017, 95:1486)
as §2, with “membranes. […]” for “membranes.”

C57/BL6 mice [1] = experiment: Grip strength test in dexamethasone animal model of muscle loss; format: in vivo, mouse; details: dexamethasone 1 mg/kg s.c. alone
Description: (§3) Dexamethasone, a synthetic glucocorticoid, was injected subcutaneously into C57/BL6 mouse mice to establish an animal model of muscle loss and following experiment was performed.
(§4) To establish an in vivo model of muscle loss, 6 weeks-old male C57/BL6 mice (Raon Bio, 6 weeks old, weight range: 32-36 g) were acclimated for one-week, and then weighed animals determined to be healthy during the acclimatization period. The mice close to the average weight were selected using a simple random sampling method and were classified into five groups, namely, (a) a control group, (b) a muscle loss control group (treated with dexamethasone 1 mg/kg), (c) test sample group treated with inventive extract 250 mg/kg and dexamethasone, (d) test sample group treated with inventive extract 500 mg/kg and dexamethasone, and (e) positive control treated with oxymetholone (Celltrion Co. Ltd, ATC #A14AA05, 10 mg/kg) and dexamethasone.
(§5) The inventive Extract and oxymetholone were administered once to the mice daily for 4 weeks and dexamethasone was injected subcutaneously for 10 days from 10 days before the end of co-treatment of inventive extract and oxymetholone.
(§6) Both of inventive extract and oxymetholone were forcibly administered orally using zonde for oral administration after holding and fixing the skin of the animal's poll area, and dexamethasone was injected slowly subcutaneously after inserting a syringe into the dorsal skin fold of the animal held on the thumb and index finger, slightly aspirating whether it was injected normally, and confirming that no blood came out.
The grip strength of mice was determined as follows; after grabbing the animal's tail and placing it on the grid, the front foot and body were pulled at the same speed until the front foot and body were held at the grid with the front paw, and the average value was calculated after three experimental repetitions. The determination was performed on the 14th and 28th days after the administration of test sample.

C57/BL6 mice [2] = experiment: Weight of muscle mass, epididymal fat and liver in dexamethasone animal model of muscle loss; format: in vivo, mouse; details: dexamethasone 1 mg/kg s.c. alone, autopsy at 4 weeks
Description: as §3, §4, §5, §6
The mice were anesthetized with anesthetic to prevent the movement of experimental animals and sacrificed to minimize pain to dissect them. All instruments used during the experiment were sterilized and disinfected and their liver and epididymis fat were harvested.
The gastrocnemius muscle and soleus muscle of the mice were separated, washed in saline, drained, and weighed.
After autopsy at 4 weeks after administration, the weight of liver and Epididymis fat was weighed to calculate weight-to-weight to compare the relative differences between the organ's weight in the groups.

C57/BL6 mice [3] = experiment: Treadmill test in dexamethasone animal model of muscle loss; format: in vivo, mouse; details: dexamethasone 1 mg/kg s.c. alone
Description: as §3, §4, §5, §6
The determination was performed on the 14th and 28th days after the administration of test sample.

[4] = Body weight in dexamethasone animal model of muscle loss; format: in vivo, mouse; details: dexamethasone 1 mg/kg s.c. alone
Description: as §3, §4, §5, §6
The body weight of every animal was measured once a week for 4 weeks from the day of inventive extract administration.

## C[C@@H]1C[C@H]2[C@@H]3CCC4=CC(=O)C=C[C@]4(C)[C@@]3(F)[C@@H](O)C[C@]2(C)[C@@]1(O)C(=O)CO [Dexa, dexamethasone]
MHC
  MHC expression: 0.7 fold
MAFbx
  MAFbx expression: 1.9 fold
C57/BL6 mice [1]; 2 weeks
  grip strength: 1.05 ± 0.08 N
C57/BL6 mice [1]; 4 weeks
  grip strength: 0.94 ± 0.12^b N
C57/BL6 mice [2]
  absolute weight, epididymal fat: 0.51 ± 0.10 gram
C57/BL6 mice [2]; gastrocnemius
  absolute weight, calf muscle: 0.242 ± 0.014 gram
C57/BL6 mice [2]; soleus
  absolute weight, fluke muscle: 0.014 ± 0.002^c gram
C57/BL6 mice [3]; 2 weeks
  motility (treadmill): 798.85 ± 14.33 meter
C57/BL6 mice [3]; 4 weeks
  motility (treadmill): 745.73 ± 30.01 meter
[4]; 0 week
  body weight: 22.33 ± 1.11 gram
[4]; 1 week
  body weight: 22.84 ± 1.54 gram
[4]; 2 weeks
  body weight: 23.46 ± 1.60 gram
[4]; 3 weeks
  body weight: 23.57 ± 1.81 gram
[4]; 4 weeks
  body weight: 23.57 ± 1.76^ab gram
